{
  "source": "paper PMC10699038",
  "about": "“Identifying molecular tags selectively retained on the surface of brain endothelial cells to generate artificial targets for therapy delivery” (Fluids and Barriers of the CNS, 2023)",
  "test_system": "b.End3 cells",
  "test": "Peptide-mediated protein (avidin-FITC/albumin-FITC) delivery to b.End3 cells",
  "format": "cell-based, mouse",
  "details": "N-terminal biotin peptide, increasing concentrations, 1 h, 4 °C, avidin-FITC 50 µg/mL, 30 min, fluorescence, 3 independent experiments, triplicate",
  "protocol": "Confluent endothelial monolayers were treated with increasing peptide concentrations in HBSS (1 h at 4 °C, unless otherwise stated). After removing unbound peptide, cells were either incubated in appropriate cell culture medium (37 °C) for varying time-points, or directly treated with neutravidin-FITC or albumin-FITC (0.83 mM, in HBSS, 30 min at 4 °C). After removing unbound protein with thorough HBSS washes, fluorescence (490/525 em/ex) was quantified with a Spark multimode microplate reader (Tecan) or imaged through confocal microscopy (Additional file 1: Diagram S1a–c).",
  "data": [
    {"substance": "HAIYPRH [Tf peptide]", "values": [
      {"measurement": "Avidin delivery to b.End3 cells", "result": "lower avidin delivery than CFAG"}
    ]}
  ]
}
